Laboratory results taken from ChEMBL document CHEMBL1158699, “Bioactive benzophenones from Garcinia xanthochymus fruits” (J Nat Prod, 2005).
Active and inactive are the calls of the source. The rule behind the calls is not given here.

Legend:
[1] = tested on: Radical scavenging activity; assay: Antioxidant activity assessed as DPPH radical scavenging activity; type: functional
[2] = tested on: SW480; assay: Cytotoxicity against human SW480 cells after 72 hrs by MTT assay; type: functional, cell-based; details: SW480, 72 h

| SMILES | IC50 [1] | IC50 [2] | Activity [1] |
| --- | --- | --- | --- |
| O=c1cc(-c2ccc(O)c(-c3c(O)cc(O)c4c(=O)cc(-c5ccc(O)cc5)oc34)c2)oc2cc(O)cc(O)c12 [AMENTOFLAVONE] | 184 µM | 111 µM | – |
| O=C1c2c(O)cc(O)cc2OC(c2ccc(O)cc2)C1c1c(O[C@@H]2O[C@H](CO)[C@@H](O)[C@H](O)[C@H]2O)cc(O)c2c(=O)cc(-c3ccc(O)c(O)c3)oc12 (mixture of isomers) | 116 µM | > 200 µM | – |
| O=c1c(-c2c(O)cc(O)c3c(=O)cc(-c4ccc(O)cc4)oc23)c(-c2ccc(O)cc2)oc2cc(O)cc(O)c12 | > 400 µM | 185 µM | – |
| COc1cc2c(=O)c3c(O)cc(O)cc3oc2cc1O [ALLOATHYRIOL] | – | 117 µM | inactive |
| O=C1c2c(O)cc(O)cc2OC(c2ccc(O)cc2)C1c1c(O)cc(O)c2c(=O)cc(-c3ccc(O)c(O)c3)oc12 (racemic) | 62 µM | 89 µM | – |
